# Source: ChEMBL document CHEMBL6078662, “Discovery of 3-(2-aminobenzo[d]thiazol-5-yl) benzamide derivatives as potent anticancer agents via ROR1 inhibition” (Bioorg Med Chem, 2025)
# pIC50: −log10 of the molar value. The source made the active and inactive calls. No cut-off for these calls is given here.
# Key:
# [1] = Cytotoxicity against human MRC5 cells assessed as inhibition of cell proliferation incubated for 72 hrs by MTT assay; format: toxicity, cell-based
# [2] = test system: PC-9; experiment: Antiproliferative activity against human PC-9 cells assessed as inhibition of cell proliferation incubated for 72 hrs by MTT assay; format: functional, cell-based; conditions: for pIC50: PC-9, 72 h
# [3] = test system: NCI-H1975; experiment: Antiproliferative activity against human NCI-H1975 cells assessed as inhibition of cell proliferation incubated for 72 hrs by MTT assay; format: functional, cell-based; conditions: for pIC50: NCI-H1975, 72 h
# [4] = test system: A549; experiment: Antiproliferative activity against human A549 cells assessed as inhibition of cell proliferation incubated for 72 hrs by MTT assay; format: functional, cell-based; conditions: for pIC50: A549, 72 h
# [5] = Selectivity index, ratio of IC50 for cytotoxicity against human MRC5 cells assessed as inhibition of cell proliferation to IC50 for antiproliferative activity against human NCI-H1975 cells assessed as inhibition of cell proliferation; format: toxicity, cell-based; conditions: MRC5 cells and NCI-H1975 cells, read-out: Ratio IC50
# [6] = molecular target: Inactive tyrosine-protein kinase transmembrane receptor ROR1 (Homo sapiens) (UniProt Q01973); experiment: Binding affinity to ROR1 in human NCI-H1975 cells assessed as protection of pronase-mediated protein degradation preincubated with compound for 1 hr followed by pronase E addition and measured after 10 mins by DARTS assay; format: cell-based; conditions: dose <= 100.0 µM, time 70.0 min
# [7] = test system: NCI-H1975; experiment: Induction of cell cycle arrest in human NCI-H1975 cells assessed as decrease in accumulation of cells at G2/M phase incubated for 24 hrs by PI staining based flow cytometry analysis; format: functional; conditions: dose 1.75-7 µM
# [8] = test system: NCI-H1975; experiment: Inhibition of SRC phosphorylation in human NCI-H1975 cells upto 7 uM incubated for 48 hrs by Western blot analysis; format: cell-based
# [9] = test system: NCI-H1975; experiment: Effect on ZEB1 expression level in human NCI-H1975 cells incubated for 48 hrs by Western blot analysis; format: functional, cell-based; conditions: dose <= 7.0 µM
# [10] = Half life in male Sprague-Dawley rat at 10 mg/kg, po measured upto 24 hrs by LC-MS/MS analysis; format: ADME, organism-based; conditions: in vivo
# [11] = test system: NCI-H1975; experiment: Inhibition of colony formation in human NCI-H1975 cells assessed as decrease in number of colonies incubated for 72 hrs by crystal violet staining based assay; format: functional, cell-based; conditions: dose 1.75-7 µM
# [12] = Cmax in male Sprague-Dawley rat at 10 mg/kg, po measured upto 24 hrs by LC-MS/MS analysis; format: ADME, organism-based; conditions: in vivo
# [13] = test system: NCI-H1975; experiment: Effect on E-cadherin expression level in human NCI-H1975 cells incubated for 48 hrs by Western blot analysis; format: functional, cell-based; conditions: dose <= 7.0 µM
# [14] = test system: NCI-H1975; experiment: Effect on MMP2 expression level in human NCI-H1975 cells incubated for 48 hrs by Western blot analysis; format: functional, cell-based; conditions: dose <= 7.0 µM
# [15] = AUC (0 to infinity) in male Sprague-Dawley rat at 10 mg/kg, po measured upto 24 hrs by LC-MS/MS analysis; format: ADME, organism-based; conditions: in vivo
# [16] = test system: NCI-H1975; experiment: Induction of cell cycle arrest in human NCI-H1975 cells assessed as reduction in CDK2 expression incubated for 24 hrs by Western blot analysis; format: functional, cell-based; conditions: dose 1.75-7 µM
# [17] = test system: NCI-H1975; experiment: Induction of cell cycle arrest in human NCI-H1975 cells assessed as reduction in c-Myc expression incubated for 24 hrs by Western blot analysis; format: functional, cell-based; conditions: dose 1.75-7 µM
# [18] = test system: NCI-H1975; experiment: Inhibition of cell migration in human NCI-H1975 cells assessed as inhibition of wound closure measured at 24 to 48 hrs by wound healing assay; format: functional, cell-based; conditions: dose 1.75-7 µM, time 24-48 hrs
# [19] = test system: NCI-H1975; experiment: Induction of cell cycle arrest in human NCI-H1975 cells assessed as reduction in cyclin-D1 expression incubated for 24 hrs by Western blot analysis; format: functional, cell-based; conditions: dose 1.75-7 µM
# [20] = test system: NCI-H1975; experiment: Effect on Vimentin expression level in human NCI-H1975 cells incubated for 48 hrs by Western blot analysis; format: functional, cell-based; conditions: dose <= 7.0 µM
# [21] = molecular target: MAP kinase p38 (Homo sapiens) (UniProt O15264+Q15759+Q16539+P53778); experiment: Inhibition of p38 phosphorylation in human NCI-H1975 cells upto 7 uM incubated for 48 hrs by Western blot analysis; format: cell-based
# [22] = test system: NCI-H1975; experiment: Effect on N-cadherin expression level in human NCI-H1975 cells incubated for 48 hrs by Western blot analysis; format: functional, cell-based; conditions: dose <= 7.0 µM
# [23] = molecular target: Inactive tyrosine-protein kinase transmembrane receptor ROR1 (Homo sapiens) (UniProt Q01973); experiment: Inhibition of ROR1 phosphorylation in human NCI-H1975 cells upto 7 uM incubated for 48 hrs by Western blot analysis; format: cell-based
# [24] = test system: NCI-H1975; experiment: Antiproliferative activity against human NCI-H1975 cells assessed as suppression of cell growth incubated for 72 hrs by MTT assay; format: functional, cell-based; conditions: dose 7.0 µM
# [25] = test system: NCI-H1975; experiment: Anti-invasive activity against human NCI-H1975 cells assessed as reduction in number of invaded cells at 7 uM incubated for 24 hrs by crystal violet staining based light microscopic analysis; format: functional, cell-based
# [26] = test system: NCI-H1975; experiment: Inhibition of cell migration in human NCI-H1975 cells assessed as inhibition of wound closure at 1.75 to 7 uM by wound healing assay; format: functional, cell-based; conditions: dose 1.75-7 µM, time 24-48 hrs
# [27] = test system: NCI-H1975; experiment: Inhibition of cell migration in human NCI-H1975 cells assessed as inhibition of wound closure at 1.75 to 7 uM measured at 24 to 48 hrs by wound healing assay; format: functional, cell-based; conditions: dose 1.75-7 µM, time 24-48 hrs
# [28] = molecular target: Inactive tyrosine-protein kinase transmembrane receptor ROR1 (Homo sapiens) (UniProt Q01973); experiment: Binding affinity to ROR1 in human NCI-H1975 cells assessed as increase in thermal stability at 10 uM at 57 to 62 degreeC incubated for 4 hrs by CETSA analysis; format: cell-based
# [29] = test system: NCI-H1975; experiment: Induction of cell cycle arrest in human NCI-H1975 cells assessed as accumulation of cells at G1 phase incubated for 24 hrs by PI staining based flow cytometry analysis; format: functional; conditions: dose 1.75-7 µM
# [30] = MRT (0 to infinity) in male Sprague-Dawley rat at 10 mg/kg, po measured upto 24 hrs by LC-MS/MS analysis; format: ADME, organism-based; conditions: in vivo
# [31] = Tmax in male Sprague-Dawley rat at 10 mg/kg, po measured upto 24 hrs by LC-MS/MS analysis; format: ADME, organism-based; conditions: in vivo
# Sequence of Inactive tyrosine-protein kinase transmembrane receptor ROR1 (Homo sapiens) (Q01973 whole entry): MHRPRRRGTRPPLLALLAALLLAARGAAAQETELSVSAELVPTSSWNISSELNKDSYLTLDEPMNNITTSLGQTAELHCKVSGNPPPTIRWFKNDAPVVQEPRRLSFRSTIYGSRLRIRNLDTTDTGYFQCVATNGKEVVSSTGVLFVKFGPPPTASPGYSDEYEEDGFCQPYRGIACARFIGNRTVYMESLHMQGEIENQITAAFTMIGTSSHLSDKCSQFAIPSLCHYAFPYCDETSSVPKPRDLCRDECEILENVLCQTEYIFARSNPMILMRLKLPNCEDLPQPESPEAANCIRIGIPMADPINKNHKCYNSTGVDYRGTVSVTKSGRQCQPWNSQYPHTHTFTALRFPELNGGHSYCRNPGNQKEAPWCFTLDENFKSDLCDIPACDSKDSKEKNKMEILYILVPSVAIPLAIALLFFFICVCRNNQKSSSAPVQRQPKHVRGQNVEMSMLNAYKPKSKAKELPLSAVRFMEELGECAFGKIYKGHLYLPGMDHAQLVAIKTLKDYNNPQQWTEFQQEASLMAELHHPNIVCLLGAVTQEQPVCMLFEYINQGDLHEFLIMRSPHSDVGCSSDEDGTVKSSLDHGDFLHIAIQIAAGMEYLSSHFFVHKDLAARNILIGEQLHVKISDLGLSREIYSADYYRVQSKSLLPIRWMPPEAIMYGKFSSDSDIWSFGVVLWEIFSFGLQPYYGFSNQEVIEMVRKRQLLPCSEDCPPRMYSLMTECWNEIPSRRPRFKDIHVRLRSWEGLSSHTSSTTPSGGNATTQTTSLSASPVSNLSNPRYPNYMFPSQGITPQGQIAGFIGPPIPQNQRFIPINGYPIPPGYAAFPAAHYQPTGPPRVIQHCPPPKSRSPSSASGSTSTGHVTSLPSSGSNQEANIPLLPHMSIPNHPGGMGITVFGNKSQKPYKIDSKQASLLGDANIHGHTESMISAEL
structure (smiles),measurement,setting,value
Cc1ccc(CNC(=O)c2cccc(-c3ccc4sc(NC(=O)C5CCCCC5)nc4c3)c2)cc1,IC50 at 72 h,[1],> 80 µM
same,pIC50,[2],< 4.40
same,pIC50,[3],< 4.40
same,pIC50,[4],< 4.40
CC(C)(C)C(=O)Nc1nc2cc(-c3cccc(C(=O)NCC4CC4)c3)ccc2s1,IC50 at 72 h,[1],> 80 µM
same,pIC50,[2],4.66
same,pIC50,[3],< 4.40
same,pIC50,[4],4.56
CC(=O)Nc1nc2cc(-c3cccc(C(=O)NCc4ccc(F)cc4)c3)ccc2s1,IC50 at 72 h,[1],> 80 µM
same,selectivity ratio,[5],> 8.56
same,pIC50,[2],< 4.40
same,pIC50,[3],5.03
same,pIC50,[4],< 4.40
COCOc1cc(OCOC)c2c(c1)O[C@@H](c1ccc(OC)cc1)CC2=O,IC50 at 72 h,[1],> 80 µM
same,selectivity ratio,[5],> 13.2
same,pIC50,[2],4.98
same,pIC50,[3],5.22
same,pIC50,[4],< 4.40
CC(C)CCNC(=O)c1cccc(-c2ccc3sc(NC(=O)c4ccc(F)cc4)nc3c2)c1,Activity,[6],Dose-dependent-effect
same,Activity,[7],Dose-dependent-effect
same,inhibition,[8],Active
same,Activity,[9],Dose-dependent-effect
same,half-life,[10],10 h
same,IC50 at 72 h,[1],> 80 µM
same,inhibition,[11],Dose-dependent-effect
same,Cmax,[12],1120 ng/mL
same,selectivity ratio,[5],> 22.9
same,Activity,[13],Dose-dependent-effect
same,Activity,[14],Dose-dependent-effect
same,AUC(0-inf),[15],12400 ng·h/mL
same,Activity,[16],Dose-dependent-effect
same,Activity,[17],Dose-dependent-effect
same,pIC50,[2],5.09
same,Activity,[2]; dose <= 40.0 µM,Dose-dependent-effect
same,inhibition,[18],Dose-dependent-effect
same,Activity,[19],Dose-dependent-effect
same,Activity,[20],Dose-dependent-effect
same,pIC50,[3],5.46
same,Activity,[3]; dose <= 40.0 µM,Dose-dependent-effect
same,inhibition,[21],Active
same,Activity,[22],Dose-dependent-effect
same,inhibition,[23],Active
same,Activity,[24],Dose-dependent-effect
same,Activity,[25],Active
same,inhibition,[26],Time-dependent-effect
same,inhibition,[27],Active
same,Activity,[28],Active
same,pIC50,[4],4.74
same,Activity,[4]; dose <= 40.0 µM,Dose-dependent-effect
same,Activity,[29],Dose-dependent-effect
same,MRT inf,[30],18.7 h
same,Tmax,[31],2 h
CCC(=O)Nc1nc2cc(-c3cccc(C(=O)NCC4CC4)c3)ccc2s1,IC50 at 72 h,[1],> 80 µM
same,pIC50,[2],< 4.40
same,pIC50,[3],< 4.40
same,pIC50,[4],< 4.40
CC(=O)Nc1nc2cc(-c3ccc4ncn(Cc5ccccc5)c(=O)c4c3)ccc2[nH]1,IC50 at 72 h,[1],1.87 µM
same,selectivity ratio,[5],1.83
same,pIC50,[2],6.04
same,pIC50,[3],5.99
same,pIC50,[4],6.08
CNc1cccc(NC(=O)c2ccc(C)c(C#Cc3cnc4cccnn34)c2)c1,pIC50,[3],4.18
same,pIC50,[4],4.56
CCC(=O)Nc1nc2cc(-c3cccc(C(=O)NCCOC)c3)ccc2s1,IC50 at 72 h,[1],> 80 µM
same,pIC50,[2],< 4.40
same,pIC50,[3],< 4.40
same,pIC50,[4],< 4.40
CC(C)CCNC(=O)c1cccc(-c2ccc3sc(NC(=O)C(C)(C)C)nc3c2)c1,IC50 at 72 h,[1],> 80 µM
same,selectivity ratio,[5],> 18.2
same,pIC50,[2],4.86
same,pIC50,[3],5.36
same,pIC50,[4],< 4.40
COCCNC(=O)c1cccc(-c2ccc3sc(NC(C)=O)nc3c2)c1,IC50 at 72 h,[1],> 80 µM
same,pIC50,[2],< 4.40
same,pIC50,[3],< 4.40
same,pIC50,[4],< 4.40
CC(=O)Nc1nc2cc(-c3cccc(C(=O)NCC4CC4)c3)ccc2s1,IC50 at 72 h,[1],> 80 µM
same,pIC50,[2],< 4.40
same,pIC50,[3],< 4.40
same,pIC50,[4],< 4.40
Cc1ccc(CNC(=O)c2cccc(-c3ccc4sc(NC(=O)C(C)(C)C)nc4c3)c2)cc1,IC50 at 72 h,[1],> 80 µM
same,selectivity ratio,[5],> 6.43
same,pIC50,[2],< 4.40
same,pIC50,[3],4.91
same,pIC50,[4],< 4.40
CC(=O)Nc1nc2cc(-c3cccc(C(=O)NCCC(C)C)c3)ccc2s1,IC50 at 72 h,[1],> 80 µM
same,pIC50,[2],4.61
same,pIC50,[3],< 4.40
same,pIC50,[4],< 4.40
O=C(NCC1CC1)c1cccc(-c2ccc3sc(NC(=O)c4ccc(F)cc4)nc3c2)c1,IC50 at 72 h,[1],> 80 µM
same,pIC50,[2],4.93
same,pIC50,[3],< 4.40
same,pIC50,[4],< 4.40
COc1ccc(CNC(=O)c2cccc(-c3ccc4sc(NC(=O)C(C)(C)C)nc4c3)c2)cc1,IC50 at 72 h,[1],> 80 µM
same,selectivity ratio,[5],> 6.52
same,pIC50,[2],< 4.40
same,pIC50,[3],4.91
same,pIC50,[4],< 4.40
CCCC(=O)Nc1nc2cc(-c3cccc(C(=O)NCCOC)c3)ccc2s1,IC50 at 72 h,[1],> 80 µM
same,pIC50,[2],< 4.40
same,pIC50,[3],< 4.40
same,pIC50,[4],< 4.40
CCCNC(=O)c1cccc(-c2ccc3sc(NC(=O)C(C)(C)C)nc3c2)c1,IC50 at 72 h,[1],> 80 µM
same,selectivity ratio,[5],> 9.8
same,pIC50,[2],< 4.40
same,pIC50,[3],5.09
same,pIC50,[4],4.50
COCCNC(=O)c1cccc(-c2ccc3sc(NC(=O)C(C)(C)C)nc3c2)c1,IC50 at 72 h,[1],> 80 µM
same,selectivity ratio,[5],> 7.23
same,pIC50,[2],< 4.40
same,pIC50,[3],4.96
same,pIC50,[4],< 4.40
CCC(=O)Nc1nc2cc(-c3cccc(C(=O)NCc4ccc(OC)cc4)c3)ccc2s1,IC50 at 72 h,[1],> 80 µM
same,pIC50,[2],< 4.40
same,pIC50,[3],< 4.40
same,pIC50,[4],< 4.40
COCCNC(=O)c1cccc(-c2ccc3sc(NC(=O)c4ccccc4)nc3c2)c1,IC50 at 72 h,[1],> 80 µM
same,selectivity ratio,[5],> 4.52
same,pIC50,[2],< 4.40
same,pIC50,[3],4.75
same,pIC50,[4],< 4.40
